Measurements from patent EP4768471A1, “SIX-MEMBERED AND FIVE-MEMBERED FUSED RING DERIVATIVE, AND PREPARATION METHOD THEREFOR AND USE THEREOF” (Guangdong Hengqin Novagains Biopharmaceutical Co., Ltd., priority 2023, dated 2025).
Where two headings read alike, the source gives them in different places.

Key:
[1] = molecular target: T1, human urate transporter 1 (hURAT1) (Homo sapiens, UniProt Q96S37); test: Inhibitory activity against urate transporter URAT1 (14C-uric acid uptake in Flp-In-T-REx-293-hURAT1 cells); format: cell-based
T1 construct: host or cells: Flp-In-T-REx-293 (HEK293-derived), doxycycline-induced
T1 sequence (Q96S37 1-553): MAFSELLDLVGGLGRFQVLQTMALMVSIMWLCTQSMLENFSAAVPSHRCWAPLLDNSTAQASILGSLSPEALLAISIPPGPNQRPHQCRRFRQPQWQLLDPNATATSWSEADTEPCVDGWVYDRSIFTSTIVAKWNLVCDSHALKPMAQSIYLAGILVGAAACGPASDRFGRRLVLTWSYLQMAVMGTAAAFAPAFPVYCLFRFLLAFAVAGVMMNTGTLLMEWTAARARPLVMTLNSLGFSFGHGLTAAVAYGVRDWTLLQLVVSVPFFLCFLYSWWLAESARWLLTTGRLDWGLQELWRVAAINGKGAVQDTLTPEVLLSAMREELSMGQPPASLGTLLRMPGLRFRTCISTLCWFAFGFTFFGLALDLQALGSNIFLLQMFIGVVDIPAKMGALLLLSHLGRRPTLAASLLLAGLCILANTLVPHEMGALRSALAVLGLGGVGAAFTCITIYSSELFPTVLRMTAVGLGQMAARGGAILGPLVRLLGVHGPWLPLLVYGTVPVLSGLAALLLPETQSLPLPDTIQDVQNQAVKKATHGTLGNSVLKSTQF
Experimental: Inhibitory activity of each compound against urate transporter URAT1 was tested. Compounds: the compounds of the present disclosure were prepared according to the methods in examples; Verinurad was purchased commercially; and CDER167 was prepared according to the method described in the literature (doi: 10.1038/s41401-021-00640-5). Cells: Flp-In-T-REx-293-hURAT1 cells capable of expressing human urate transporter 1 (hURAT1), were purchased from Pharmaron Beijing Co., Ltd., China or can be generated (e.g., by transfecting hURAT1 genes into commercially available Flp-In-T-REx-293 cells according to the method described in the literature doi: 10.1124/dmd.106.012187, and the expression of the hURAT1 genes can be verified by methods such as Western blotting). [drawing 76] The Flp-In-T-REx-293-hURAT1 cells were cultured in a Dulbecco's Modified Eagle Medium (DMEM) in 75 cm^2 flasks under 5% CO2 and 37°C, and passaged every two days. […] The cells were resuspended in the DMEM and then counted, and subsequently prepared into a cell suspension with a proper density. The cells were seeded into a 96-well plate and cultured in a 37°C and 5% CO2 incubator for 24 h. The culture medium was removed, and DMEM containing 200 ng/mL doxycycline was added. The cells were then placed back into the 37°C and 5% CO2 incubator and cultured for 18 h. The test compounds were serially diluted 3-fold in DMSO starting from 10 mmol/L to prepare 10 stock solutions at varying concentrations. A buffer solution was prepared, which contained 125 mmol/L sodium gluconate, 4.8 mmol/L potassium gluconate, 5.6 mmol/L glucose, 1.2 mmol/L potassium dihydrogen phosphate, 1.2 mmol/L magnesium sulfate, 1.3 mmol/L calcium gluconate and 25 mmol/L HEPES (pH = 7.4). 1.2 µL of each test compound stock solution was mixed with 119 µL of buffer to form an assay buffer. After induction for 16 h, the culture medium was removed, and the cells were washed with a prewarmed buffer and incubated for 10 min at 37°C. The buffer was then removed, and an assay buffer containing 50 µmol/L ^14C-uric acid and the test compound was added to the cells, and then the cells were incubated at 37°C for 5 min. The buffer was removed, the cells were washed three times with a precool buffer. Subsequently, 100 mmol/L NaOH was added to lyse the cells for 20 min. The lysate was transferred to a 96-well plate, and then 200 µL of UltimaGold XR scintillation cocktail was added, and radioactivity was measured using a MicroBeta^2 (PerkinElmer). The half-maximal inhibitory concentration (IC50) of each test compound was calculated via GraphPad Prism 8 software using a nonlinear regression fitting equation. The IC50 values were categorized by the following grades: […] Table 2 Inhibitory activity (IC50) of some compounds in the present disclosure against urate transporter

ICR mice = test: Toxicity test: 28-day repeated administration in mice, histopathological examination of liver and kidney; settings: intragastric gavage 200 mg/kg once daily for 28 consecutive days, 8 mice per group
Experimental: The toxicity of each compound was evaluated following 28-day repeated administration in mice.
Method: ICR mice that passed quarantine were selected, with equal numbers of males and females. The mice were randomly grouped based on body weight and sex, with 8 mice per group. The test compounds included the compounds of the present disclosure and a positive drug Verinurad. The test compounds were administered to the animals via intragastric gavage at a dosage of 200 mg/kg, once daily for 28 consecutive days. Detailed clinical observations were performed after each administration, with at least 2 h observation following the first administration or upon detection of abnormalities. In addition, cage-side observations were conducted once daily in the afternoon. Observations included clinical signs (animal appearance, behavior, diet, response to stimuli, secretions and excretions) and mortality (time of death or time of discovery of death, pre-mortem signs, etc.). In addition, the symptoms of animals, and the onset, severity, and duration of any observed clinical symptoms of animals were recorded. On Day 28 of administration, the mice were euthanized immediately after blood collection was completed and subjected to necropsy. Livers and left kidneys were collected for paraffin embedding, sectioning and hematoxylin-eosin (HE) staining, followed by histopathological examination to observe tissue lesions. Special attention was paid to the degeneration and inflammatory changes in glomeruli and renal tubules, as well as the presence of urea crystals. The animals euthanized due to found moribund or the animals dead during the experiment were subjected to necropsy promptly.

[2] = Flp-In-T-REx-293-hURAT1 cells, 50 µmol/L 14C-uric acid, 5 min at 37°C, read-out: IC50

With CC(C)(Sc1ccncc1Cc1ccc(C#N)c2ccccc12)C(=O)O [CDER167, reference compound] the IC50 [1, 2] was > 1000 nM.

CC(C)(Sc1ccccc1Cn1cc(C#N)c2ccccc21)C(=O)O [Compound F-02] was tested, and the “hepatic or renal toxicity upon histopathological examination” value (ICR mice) was “no hepatic or renal toxicity” and the IC50 [1] was 100 to 500 nM.

For CC(C)(Sc1ccccc1Cn1cc(C#N)c2cnccc21)C(=O)O [Compound F-05], the “hepatic or renal toxicity upon histopathological examination” value (ICR mice) was “no hepatic or renal toxicity” and the IC50 [1, 2] was < 100 nM.

In the case of CC(C)(Sc1ccccc1Cn1cc(C#N)c2cccnc21)C(=O)O [Compound F-07], the “hepatic or renal toxicity upon histopathological examination” value (ICR mice) is reported as “no hepatic or renal toxicity” and the IC50 [1] is reported as < 100 nM.

With CC(C)(Sc1ccccc1Cn1cc(C#N)c2cncnc21)C(=O)O [Compound F-08] the “hepatic or renal toxicity upon histopathological examination” value (ICR mice) was “no hepatic or renal toxicity” and the IC50 [1, 2] was 100 to 500 nM.

CC(C)(Sc1ccc(F)cc1Cn1cc(C#N)c2ccccc21)C(=O)O [Compound F-09] was tested, and the “hepatic or renal toxicity upon histopathological examination” value (ICR mice) was “no hepatic or renal toxicity” and the IC50 [1] was 100 to 500 nM.

For CC(C)(Sc1ccc(Cl)cc1Cn1cc(C#N)c2ccccc21)C(=O)O [Compound F-10], the “hepatic or renal toxicity upon histopathological examination” value (ICR mice) was “no hepatic or renal toxicity” and the IC50 [1, 2] was 100 to 500 nM.

With CC(C)(Sc1ccc(Br)cc1Cn1cc(C#N)c2ccccc21)C(=O)O [Compound F-11] the “hepatic or renal toxicity upon histopathological examination” value (ICR mice) was “no hepatic or renal toxicity” and the IC50 [1, 2] was 100 to 500 nM.

In the case of Cc1ccc(SC(C)(C)C(=O)O)c(Cn2cc(C#N)c3ccccc32)c1 [Compound F-12], the “hepatic or renal toxicity upon histopathological examination” value (ICR mice) is reported as “no hepatic or renal toxicity” and the IC50 [1] is reported as 100 to 500 nM.

In the case of COc1ccc(SC(C)(C)C(=O)O)c(Cn2cc(C#N)c3ccccc32)c1 [Compound F-13], the “hepatic or renal toxicity upon histopathological examination” value (ICR mice) is reported as “no hepatic or renal toxicity” and the IC50 [1, 2] is reported as 100 to 500 nM.

CC(C)(Sc1ccccc1Cn1cc(C#N)c2c(F)cccc21)C(=O)O [Compound F-14] was tested, and the “hepatic or renal toxicity upon histopathological examination” value (ICR mice) was “no hepatic or renal toxicity” and the IC50 [1] was 100 to 500 nM.

For CC(C)(Sc1ccccc1Cn1cc(C#N)c2ccc(F)cc21)C(=O)O [Compound F-16], the “hepatic or renal toxicity upon histopathological examination” value (ICR mice) was “no hepatic or renal toxicity” and the IC50 [1] was 100 to 500 nM.

With CC(C)(Sc1ccccc1Cn1cc(C#N)c2cccc(F)c21)C(=O)O [Compound F-17] the “hepatic or renal toxicity upon histopathological examination” value (ICR mice) was “no hepatic or renal toxicity” and the IC50 [1] was 100 to 500 nM.

N#Cc1cn(Cc2ccccc2SC2(C(=O)O)CCC2)c2ncccc12 [Compound F-20] was tested, and the “hepatic or renal toxicity upon histopathological examination” value (ICR mice) was “no hepatic or renal toxicity” and the IC50 [1] was 100 to 500 nM.

In the case of N#Cc1cn(Cc2cc(F)ccc2SC2(C(=O)O)CCC2)c2ncccc12 [Compound F-26], the “hepatic or renal toxicity upon histopathological examination” value (ICR mice) is reported as “no hepatic or renal toxicity” and the IC50 [1] is reported as 100 to 500 nM.

For N#Cc1cn(Cc2cc(Cl)ccc2SC2(C(=O)O)CCC2)c2ncccc12 [Compound F-27], the “hepatic or renal toxicity upon histopathological examination” value (ICR mice) was “no hepatic or renal toxicity” and the IC50 [1, 2] was 100 to 500 nM.

For N#Cc1cn(Cc2cc(Br)ccc2SC2(C(=O)O)CCC2)c2ncccc12 [Compound F-28], the “hepatic or renal toxicity upon histopathological examination” value (ICR mice) was “no hepatic or renal toxicity” and the IC50 [1, 2] was 100 to 500 nM.

COc1ccc(SC2(C(=O)O)CCC2)c(Cn2cc(C#N)c3cccnc32)c1 [Compound F-30] was tested, and the “hepatic or renal toxicity upon histopathological examination” value (ICR mice) was “no hepatic or renal toxicity” and the IC50 [1, 2] was 100 to 500 nM.

CC(C)(Sc1ccncc1-c1ccc(C#N)c2ccccc12)C(=O)O [Verinurad, reference compound] was tested, and the “renal toxicity (number of mice affected)” value (ICR mice) was 3 out of 8, the “renal toxicity (percentage of mice affected)” value (ICR mice) was 37.5% and the IC50 [1, 2] was 500 to 1000 nM.
